Like-named read-outs stand apart in the source and are kept apart here.
Columns and labels:
[1] = test system: endogenous kinases and other proteins enriched by Kinobeads from mixed lysates of K-562, COLO-205, MV-4-11, SK-N-BE(2) and OVCAR-8; assay: Kinobeads competition binding profiling, two doses (100 nM and 1 µM); design: species or system human; conditions: for detection of the designated target by Kinobeads: previous chemical probes; for selectivity in the Kinobeads assay (CATDSmost potent): in words;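 as to all read-outs here: inhibitor preincubated 45 min at 4 °C in cell lysate, then bead pulldown. Bound protein quantified by label-free mass spectrometry relative to DMSO vehicle control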
ABL1 [2] = biological target: T1, ABL1 (Homo sapiens, UniProt P00519); assay: Kinobeads two-dose competition binding: ABL1; conditions: sheet CATDS matrix 2; Gene Name ABL1
ABL1 [3] = biological target: T1, ABL1; assay: Kinobeads two-dose competition binding: ABL1; conditions: sheet "Kinobeads Drugmatrix - all"; unit inferred; read-out: Kinobeads Drugmatrix - all: apparent Kd, ABL1
ABL2 [4] = biological target: T2, ABL2 (Homo sapiens, UniProt P42684); assay: Kinobeads two-dose competition binding: ABL2; conditions: sheet "Kinobeads Drugmatrix - all"; unit inferred; read-out: Kinobeads Drugmatrix - all: apparent Kd, ABL2
T2 construct: endogenous in cells

ACOX1 = biological target: T3, ACOX1 (Homo sapiens, UniProt Q15067); assay: Kinobeads two-dose competition binding: ACOX1; conditions: sheet CATDS matrix 2; Gene Name ACOX1;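 also: competition of compounds with immobilized broad-spectrum kinase inhibitor beads in cell lysate at 100 and 1,000 nM, 45 min at 4 °C, bead-bound protein quantified by label-free MS versus DMSO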
T3 construct: endogenous in cells
T3 sequence (Q15067 1-660): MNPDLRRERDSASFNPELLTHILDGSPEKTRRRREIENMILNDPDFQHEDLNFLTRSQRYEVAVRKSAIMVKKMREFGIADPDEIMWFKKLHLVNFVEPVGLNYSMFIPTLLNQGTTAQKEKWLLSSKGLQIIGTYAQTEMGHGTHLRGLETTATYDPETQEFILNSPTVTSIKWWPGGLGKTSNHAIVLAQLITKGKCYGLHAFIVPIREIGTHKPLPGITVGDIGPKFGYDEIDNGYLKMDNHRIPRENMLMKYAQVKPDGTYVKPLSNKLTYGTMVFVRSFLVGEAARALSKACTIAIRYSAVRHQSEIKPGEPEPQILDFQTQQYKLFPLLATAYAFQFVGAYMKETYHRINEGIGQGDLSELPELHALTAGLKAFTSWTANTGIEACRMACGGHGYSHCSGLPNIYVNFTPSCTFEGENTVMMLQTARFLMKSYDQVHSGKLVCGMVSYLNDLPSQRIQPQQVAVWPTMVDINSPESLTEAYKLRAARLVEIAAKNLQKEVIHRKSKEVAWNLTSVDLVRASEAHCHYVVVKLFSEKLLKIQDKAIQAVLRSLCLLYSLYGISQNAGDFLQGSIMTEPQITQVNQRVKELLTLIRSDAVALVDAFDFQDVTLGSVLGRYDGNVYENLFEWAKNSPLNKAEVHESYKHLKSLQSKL

ABL2 [5] = biological target: T2, ABL2; assay: Kinobeads two-dose competition binding: ABL2; conditions: sheet CATDS matrix 2; Gene Name ABL2
ACAD11 = biological target: T4, ACAD11 (Homo sapiens, UniProt Q709F0); assay: Kinobeads two-dose competition binding: ACAD11; conditions: sheet CATDS matrix 2; Gene Name ACAD11
T4 construct: endogenous in cells
T4 sequence (Q709F0 1-780): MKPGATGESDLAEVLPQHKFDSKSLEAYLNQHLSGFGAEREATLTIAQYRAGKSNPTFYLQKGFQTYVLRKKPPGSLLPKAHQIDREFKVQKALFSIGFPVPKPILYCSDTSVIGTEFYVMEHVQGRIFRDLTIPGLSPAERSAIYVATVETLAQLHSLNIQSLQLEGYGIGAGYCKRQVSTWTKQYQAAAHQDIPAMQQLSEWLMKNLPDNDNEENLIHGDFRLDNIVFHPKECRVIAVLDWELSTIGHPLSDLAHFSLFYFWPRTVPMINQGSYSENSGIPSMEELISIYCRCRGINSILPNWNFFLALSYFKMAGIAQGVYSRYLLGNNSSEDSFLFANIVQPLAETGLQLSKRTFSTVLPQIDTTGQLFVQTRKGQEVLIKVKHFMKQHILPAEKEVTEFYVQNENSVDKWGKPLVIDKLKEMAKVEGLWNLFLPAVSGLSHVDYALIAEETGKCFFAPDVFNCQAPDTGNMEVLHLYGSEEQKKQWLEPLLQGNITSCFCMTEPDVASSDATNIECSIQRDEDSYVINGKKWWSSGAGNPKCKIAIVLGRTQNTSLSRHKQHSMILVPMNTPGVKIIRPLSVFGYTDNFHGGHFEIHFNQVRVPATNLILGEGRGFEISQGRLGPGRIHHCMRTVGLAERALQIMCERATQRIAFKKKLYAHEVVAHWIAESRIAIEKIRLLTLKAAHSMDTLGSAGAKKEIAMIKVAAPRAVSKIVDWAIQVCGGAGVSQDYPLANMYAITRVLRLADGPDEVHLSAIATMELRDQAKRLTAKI

AAK1 = biological target: T5, AAK1 (Homo sapiens, UniProt Q2M2I8); assay: Kinobeads two-dose competition binding: AAK1; conditions: for CATDS: sheet CATDS matrix 2, Gene Name AAK1; for potency estimated from few doses: read-out: Kinobeads Drugmatrix - all: apparent Kd, AAK1;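 as to all read-outs here: kinobeads competition pulldown from cell lysate, compound preincubated 45 min at 4 °C, bead-bound protein measured by label-free mass spectrometry against DMSO vehicle control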
T5 construct: to maximize the representation of endogenous proteins; endogenous in cells

PKN3 = PKN3 (Homo sapiens, UniProt Q6P5Z2); assay: NanoBRET in-cell target engagement in HEK293T cells: PKN3; format: cell-based; design: full-length PKN3, CSNK2A1 or CSNK2A2 ORF; host or cells: HEK293T;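 also: Full-length PKN3 with C-terminal NanoLuc expressed in HEK293T cells, serial inhibitor dilutions competing against Kinase Tracer K5 at 500 nM, BRET read after 2 h at 37 °C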
[6] = HEK293T cells, in-cell target engagement, read-out: IC50 PKN3 NanoBRET
[7] = sheet "Kinobeads Drugmatrix - all", unit inferred, same values below 1000 recur in sheet "nanomolar"

T2 sequence (P42684 whole entry): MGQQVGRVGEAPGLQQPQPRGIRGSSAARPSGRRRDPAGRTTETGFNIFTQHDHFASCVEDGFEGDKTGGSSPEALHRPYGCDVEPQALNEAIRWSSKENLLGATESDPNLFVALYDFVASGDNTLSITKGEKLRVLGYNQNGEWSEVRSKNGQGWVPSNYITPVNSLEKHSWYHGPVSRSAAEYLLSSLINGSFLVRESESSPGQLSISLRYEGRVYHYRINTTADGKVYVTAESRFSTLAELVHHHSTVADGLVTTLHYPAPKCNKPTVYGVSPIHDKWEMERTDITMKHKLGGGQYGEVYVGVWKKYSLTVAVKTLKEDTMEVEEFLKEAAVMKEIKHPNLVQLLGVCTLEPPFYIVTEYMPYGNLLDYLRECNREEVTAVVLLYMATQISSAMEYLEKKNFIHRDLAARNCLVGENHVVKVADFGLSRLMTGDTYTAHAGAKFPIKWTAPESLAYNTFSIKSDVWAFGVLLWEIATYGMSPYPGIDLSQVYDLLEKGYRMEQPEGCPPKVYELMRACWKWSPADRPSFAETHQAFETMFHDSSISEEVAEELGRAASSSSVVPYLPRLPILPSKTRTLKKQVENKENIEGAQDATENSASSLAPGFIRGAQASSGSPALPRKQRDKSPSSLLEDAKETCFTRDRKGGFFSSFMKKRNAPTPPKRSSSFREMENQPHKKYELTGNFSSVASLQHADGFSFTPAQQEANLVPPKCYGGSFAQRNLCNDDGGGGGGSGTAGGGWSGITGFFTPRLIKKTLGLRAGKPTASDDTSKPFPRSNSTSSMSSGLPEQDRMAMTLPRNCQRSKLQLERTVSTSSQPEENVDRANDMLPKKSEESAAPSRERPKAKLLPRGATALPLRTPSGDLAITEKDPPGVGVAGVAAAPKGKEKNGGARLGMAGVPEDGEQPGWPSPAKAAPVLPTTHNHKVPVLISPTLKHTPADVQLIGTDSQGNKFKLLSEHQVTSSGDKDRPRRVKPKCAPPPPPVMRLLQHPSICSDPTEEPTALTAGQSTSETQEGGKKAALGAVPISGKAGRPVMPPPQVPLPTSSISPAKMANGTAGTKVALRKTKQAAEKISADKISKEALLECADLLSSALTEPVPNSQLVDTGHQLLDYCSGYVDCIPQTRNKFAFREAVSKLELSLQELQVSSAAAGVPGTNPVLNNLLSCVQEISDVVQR
T1 sequence (P00519 28-1130 limits assumed): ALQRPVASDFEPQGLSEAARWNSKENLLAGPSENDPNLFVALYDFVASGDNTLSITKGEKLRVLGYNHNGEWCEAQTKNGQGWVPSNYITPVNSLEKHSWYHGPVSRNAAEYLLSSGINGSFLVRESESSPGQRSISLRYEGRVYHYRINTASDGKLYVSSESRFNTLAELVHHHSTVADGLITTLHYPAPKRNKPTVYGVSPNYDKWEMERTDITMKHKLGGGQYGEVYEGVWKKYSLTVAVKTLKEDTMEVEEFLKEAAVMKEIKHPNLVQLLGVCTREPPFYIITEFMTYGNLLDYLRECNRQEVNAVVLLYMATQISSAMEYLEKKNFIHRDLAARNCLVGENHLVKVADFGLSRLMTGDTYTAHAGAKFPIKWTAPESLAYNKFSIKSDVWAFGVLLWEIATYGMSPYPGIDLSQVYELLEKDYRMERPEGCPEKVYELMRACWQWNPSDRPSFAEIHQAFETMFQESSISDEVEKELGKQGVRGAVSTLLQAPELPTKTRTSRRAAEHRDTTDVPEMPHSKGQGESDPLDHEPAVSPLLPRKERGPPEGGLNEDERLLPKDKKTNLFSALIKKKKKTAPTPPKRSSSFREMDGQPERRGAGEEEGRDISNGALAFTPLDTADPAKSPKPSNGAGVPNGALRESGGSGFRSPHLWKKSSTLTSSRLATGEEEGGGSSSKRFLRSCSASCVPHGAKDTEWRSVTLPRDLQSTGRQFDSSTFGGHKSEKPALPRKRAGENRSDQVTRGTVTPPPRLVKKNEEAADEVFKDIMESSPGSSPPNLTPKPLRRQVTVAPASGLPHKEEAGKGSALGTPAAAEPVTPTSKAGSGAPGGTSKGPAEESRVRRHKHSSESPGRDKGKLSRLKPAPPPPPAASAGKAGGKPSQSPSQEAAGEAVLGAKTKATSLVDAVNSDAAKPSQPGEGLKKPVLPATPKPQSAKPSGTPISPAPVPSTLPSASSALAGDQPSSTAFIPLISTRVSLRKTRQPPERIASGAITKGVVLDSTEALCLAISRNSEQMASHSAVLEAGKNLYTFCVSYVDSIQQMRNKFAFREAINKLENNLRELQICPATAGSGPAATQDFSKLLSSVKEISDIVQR
Chain of PKN3 (Q6P5Z2 whole entry): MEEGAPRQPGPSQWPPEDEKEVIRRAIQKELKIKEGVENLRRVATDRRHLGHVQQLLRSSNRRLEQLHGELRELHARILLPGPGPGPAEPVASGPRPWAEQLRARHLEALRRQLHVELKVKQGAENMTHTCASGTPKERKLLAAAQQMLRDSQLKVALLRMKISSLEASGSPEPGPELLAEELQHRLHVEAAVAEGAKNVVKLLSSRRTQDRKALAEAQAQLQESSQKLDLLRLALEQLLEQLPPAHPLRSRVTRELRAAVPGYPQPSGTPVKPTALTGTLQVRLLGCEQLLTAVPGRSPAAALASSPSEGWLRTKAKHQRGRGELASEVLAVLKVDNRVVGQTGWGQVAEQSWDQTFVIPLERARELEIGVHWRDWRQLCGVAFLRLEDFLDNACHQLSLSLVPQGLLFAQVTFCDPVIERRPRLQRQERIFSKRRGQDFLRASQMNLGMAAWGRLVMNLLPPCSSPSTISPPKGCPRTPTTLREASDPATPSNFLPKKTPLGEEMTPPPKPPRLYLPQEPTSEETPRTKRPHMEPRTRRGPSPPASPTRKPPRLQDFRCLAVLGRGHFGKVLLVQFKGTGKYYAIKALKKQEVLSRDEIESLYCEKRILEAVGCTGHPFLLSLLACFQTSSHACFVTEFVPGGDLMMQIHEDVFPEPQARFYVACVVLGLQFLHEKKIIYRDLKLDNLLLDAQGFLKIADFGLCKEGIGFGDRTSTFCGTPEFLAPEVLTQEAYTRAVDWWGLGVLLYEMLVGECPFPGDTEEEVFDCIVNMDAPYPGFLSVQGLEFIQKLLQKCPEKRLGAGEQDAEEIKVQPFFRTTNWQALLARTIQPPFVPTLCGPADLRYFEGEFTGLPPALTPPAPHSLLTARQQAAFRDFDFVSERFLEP
T5 sequence (Q2M2I8 whole entry): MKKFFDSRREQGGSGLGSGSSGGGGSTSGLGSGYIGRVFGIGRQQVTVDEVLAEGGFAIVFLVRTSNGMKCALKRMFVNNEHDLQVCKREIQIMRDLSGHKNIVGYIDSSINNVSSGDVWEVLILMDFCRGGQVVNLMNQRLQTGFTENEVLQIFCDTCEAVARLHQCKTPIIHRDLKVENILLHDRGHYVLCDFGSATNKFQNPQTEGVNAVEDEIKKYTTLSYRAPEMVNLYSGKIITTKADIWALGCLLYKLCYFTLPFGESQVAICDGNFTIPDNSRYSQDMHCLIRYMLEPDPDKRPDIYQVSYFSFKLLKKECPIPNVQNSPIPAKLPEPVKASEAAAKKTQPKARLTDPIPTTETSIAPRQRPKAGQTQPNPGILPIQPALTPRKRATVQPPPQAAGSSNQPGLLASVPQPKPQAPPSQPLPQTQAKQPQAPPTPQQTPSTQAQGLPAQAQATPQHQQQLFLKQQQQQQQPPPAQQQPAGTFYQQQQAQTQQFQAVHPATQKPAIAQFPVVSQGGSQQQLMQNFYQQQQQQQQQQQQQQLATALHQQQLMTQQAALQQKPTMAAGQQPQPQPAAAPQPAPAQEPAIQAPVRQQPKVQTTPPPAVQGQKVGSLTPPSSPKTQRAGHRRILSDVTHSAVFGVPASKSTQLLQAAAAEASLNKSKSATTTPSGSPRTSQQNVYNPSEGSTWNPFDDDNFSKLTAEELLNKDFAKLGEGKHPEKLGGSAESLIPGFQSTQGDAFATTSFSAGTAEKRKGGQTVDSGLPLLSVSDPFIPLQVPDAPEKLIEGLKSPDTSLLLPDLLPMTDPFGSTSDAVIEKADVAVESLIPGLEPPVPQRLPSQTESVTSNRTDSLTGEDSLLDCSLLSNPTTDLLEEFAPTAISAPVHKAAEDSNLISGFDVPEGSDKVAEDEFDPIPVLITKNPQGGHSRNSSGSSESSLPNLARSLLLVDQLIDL

Structure (SMILES) | CATDS (ABL1 [2]) | potency estimated from few doses (ABL1 [3]) [nM] | potency estimated from few doses (ABL2 [4]) [nM] | CATDS (ACOX1) | CATDS (ABL2 [5]) | CATDS (ACAD11) | CATDS (AAK1) | other results
CN(C)C/C=C/C(=O)Nc1ccc(C(=O)N2CCC[C@@H](Nc3ncc(Cl)c(-c4c[nH]c5ccccc45)n3)C2)cc1 [THZ531, reference compound] | – | – | – | – | – | – | – | detection of the designated target by Kinobeads [1]: failed to reveal their targets
COC[C@@H](C)N[C@H]1CC[C@H](Nc2cc(-c3cccc(NCC4(C#N)CCOCC4)n3)c(Cl)cn2)CC1 [NVP-2, reference compound] | – | – | – | – | – | – | – | detection of the designated target by Kinobeads [1]: failed to reveal their targets
CN1CCc2ccc(Nc3nccc(-c4c(-c5cccc(NC(=O)c6c(F)cccc6F)c5)nc5ccccn45)n3)cc2C1 [GSK1010829B] | 0 | > 1000 | 515 | 0 | 0.05238 | 0 | 0 | –
CC(=O)N1CCN(c2ccc(Nc3nccc(-c4sc(C(C)C)nc4-c4cccc(NS(=O)(=O)c5cccc(Cl)c5)c4)n3)cn2)CC1 [GSK1660437A] | 0 | – | 351 | 0 | 0.07869 | 0 | 0 | –
CC(C)c1nc(-c2cccc(NS(=O)(=O)c3c(F)cccc3F)c2F)c(-c2ccnc(Nc3ccc(N4CCOCC4)nc3)n2)s1 [GSK2008607A] | 0.02525 | 706 | 101 | 0 | 0.07581 | 0 | 0 | –
CC(C)(C)S(=O)(=O)c1ccc2nccc(Nc3n[nH]c4ccc(F)cc34)c2c1 [GSK583, reference compound] | – | – | – | – | – | – | – | chemical probe criteria (Kdapp < 1 µM and CATDSmost potent > 0.5) ([1]; Kinobeads data): fulfilled our criteria
CCC(=O)Nc1cccc(Oc2nc(Nc3ccc(N4CCN(C)CC4)cc3OC)ncc2Cl)c1 [WZ4003, reference compound] | – | – | – | – | – | – | – | selectivity in the Kinobeads assay (CATDSmost potent) [1]: poor selectivity
CCn1c(-c2nonc2N)nc2c(C#CC(C)(C)O)nc(CN3CCCC3)cc21 [GSK1000163A] | 0 | – | – | 0 | 0 | 0 | 0 | IC50 (PKN3; [6]): 11000 nM; IC50 (PKN3; average of replicates, read-out: Average of IC50 values NanoBRET PKN3): 6970 nM; IC50 (PKN3; biological replicate number 1, read-out: Rep 1 IC50 NanoBRET PKN3): 11100 nM; IC50 (PKN3; biological replicate number 2, read-out: Rep 2 IC50 NanoBRET PKN3): 9200 nM; IC50 (PKN3; biological replicate number 3, read-out: Rep 3 IC50 NanoBRET PKN3): 6130 nM; IC50 (PKN3; biological replicate number 4, read-out: Rep 4 IC50 NanoBRET PKN3): 1430 nM
CC(C)c1nc(-c2cccc(NS(=O)(=O)c3c(F)cccc3F)c2)c(-c2ccnc(Nc3ccc(N4CCOCC4)nc3)n2)s1 [GSK1723980B] | 0.0244 | 301 | 61.3 | 0 | 0.05939 | 0 | 0 | –
CC(=O)N1CCN(c2ccc(Nc3nccc(-c4sc(C(C)C)nc4-c4cccc(NS(=O)(=O)c5ccccc5)c4)n3)cn2)CC1 [GSK1645872A] | 0.02989 | 746 | 166 | 0 | 0.06803 | 0 | 0 | –
NC[C@@](O)(c1ccc(Cl)cc1)c1ccc(-c2cn[nH]c2)cc1 [AT-13148, reference compound] | 0 | – | – | 0 | 0 | 0 | 0 | IC50 (PKN3; [6]): 2060 nM
O=C(O[C@H]1CN[C@H](C#Cc2cc3ncnc(Nc4ccc(OCc5cccc(F)c5)c(Cl)c4)c3s2)C1)N1CCOCC1 [GW869810X] | – | – | – | – | – | – | – | selectivity in the Kinobeads assay (CATDSmost potent) [1]: very selective
CC(C)c1nc(-c2cccc(NS(=O)(=O)c3ccccc3)c2)c(-c2ccnc(Nc3ccc4c(c3)CN(C)CC4)n2)s1 [GSK1649598A] | 0.02015 | 368 | 93.8 | 0 | 0.03972 | 0 | 0 | –
CNC(=O)c1ccccc1Nc1nc(Nc2ccc(N3CCOCC3)cc2)ncc1Cl [GSK1576028A] | 0 | > 1000 | – | 0 | 0 | 0 | 0.02054 | potency estimated from few doses (AAK1): 142 nM
CC(C)c1nc(-c2ccc(F)c(NS(=O)(=O)c3c(F)cccc3F)c2)c(-c2ccnc(Nc3ccc(N4CCOCC4)nc3)n2)s1 [GSK1804250A] | 0.03302 | 970 | 126 | 0 | 0.1009 | 0 | 0 | –
CNC(=O)c1ccccc1Nc1nc(Nc2cccc(CS(C)(=O)=O)c2)ncc1C [GSK1520489A] | 0.01362 | 401 | 389 | 0 | 0.01375 | 0 | 0 | –
O=C(NCCO)c1cccc(-c2cc(Nc3ccc(OC(F)(F)F)cc3)ncn2)c1 [GNF-5, reference compound] | – | – | – | – | – | – | – | detection of the designated target by Kinobeads [1]: failed to reveal their targets
CN1C(=O)c2ccccc2N(C)c2nc(Nc3cnn(C4CCNCC4)c3)ncc21 [XMD-17-51, reference compound] | – | – | – | – | – | – | – | number of targets in the Kinobead assay ([1]; two-dose Kinobeads): ~50
COc1cc2ncn(-c3cc(OCCCc4ccccc4)c(C(N)=O)s3)c2cc1OC [GSK205189A] | 0 | – | 956 | 0 | 0.03238 | 0 | 0 | –
Clc1cc(Cl)cc(Nc2ccnc(Nc3cc(Cl)cc(Cl)c3)n2)c1 [GSK175726A] | 0.026 | 83.2 | 7.68 | 0 | 0.1551 | 0 | 0.01178 | potency estimated from few doses (AAK1; [7]): 460 nM
COc1cc2nccc(Nc3ccc(Oc4ccccc4)cc3)c2cc1OC [GI261656A] | 0.04923 | 661 | – | 0 | 0 | 0 | 0 | –
COc1ccc(Nc2ncc(C#N)c(Nc3ccccc3C(N)=O)n2)cc1N1CCN(C)CC1 [GSK1558669A] | 0.01209 | 112 | 334 | 0 | 0.008409 | 0 | 0.01049 | potency estimated from few doses (AAK1; [7]): 164 nM
